pKd: −log10 of the molar value. Like-named read-outs stand apart in the source and are kept apart here.

This assay is described as follows: real-time WGM (SRSN) resonator measurement of the streptavidin-biotin interaction, Langmuir model analysis. The assay is classed as binding. Particulars: for association rate: fit of Equation 7. From the text:
An interaction between streptavidin and biotin may be measured. […] Prior to experiments, the SRSN resonator may be pre-processed using biotin. When streptavidin of a DPBS flows into a fluid channel, streptavidin starts to attach biotin on a surface of the optical active resonator. Streptavidin that has closely attached biotin on the surface of the resonator may increase the length of an optical path of a resonance mode. Accordingly, a resonance movement may occur because the resonance state of the optical active resonator is changed.
A beam of a 457.9 nm wavelength argon laser 730 may be concentrated on the top of an SRSN resonator 710 through the PDMS wall of a micro microfluidic channel 720. The laser intensity of a focal plane is 20 W/cm^2 and may obtain strong PL emission including a characteristic cavity mode profile by stimulating silicon nano-clusters. The PL emission is collected through the side wall of the microfluidic channel 720 by an objective lens 750 (numerical aperture: 0.15). In this case, a transverse magnetic (TM) polarization component may be selectively captured by a polarity bond. […] The TM mode may be selectively measured as a cavity TM mode because the TM mode has a slot structure and can be firmly fixed compared to a TE mode. In this case, a beam splitter 740 may be configured between the argon laser 730 and the objective lens 750 and between the objective lens 750 and a CCD camera 760. A separate objective lens, a polarizer 770 and the spectrometer 780 may be configured for measurement.
The PL spectrum is measured after the state of a frequency movement is a saturation state.
In order to additionally research the developed detection device and to analyze the influence of the nano-slot structure on molecule dynamics, a time-excessive operation of a frequency movement caused by an interaction was measured. […] Such a time shift of the frequency movement may be understood based on the Langmuir model. This is commonly used to analyze the kinetics of a surface bonding reaction in a system in which a ligand has been fixed to a firm surface. A fraction proportional to a bio sensor signal may be defined as the number of ligands and analysis complexes based on the Langmuir model, and may be divided by a total number of ligands represent in the following equation in a connection step.
[formula] in the saturation state. In FIG. 10A, a solid line indicates a suitable curve of Equation 7 for measured data points. In this curve, values of kon^obs and fbeq(c) can be obtained. Kd, kon and koff can be derived by substituting the two values with Equation 8 and Equation 9 and solving both the equations at the same time.

On to Bovine Serum Albumin [BSA], for which the frequency movement (1 mg/mL, flowed 35 minutes over the biotin-processed resonator, control experiment) amounted to 0.25 nm.

Regarding streptavidin, the peak shift (streptavidin 144 nM, saturation state (FIG. 9B)) is given as 1.72 nm. This substance returned an association rate (streptavidin concentration 9 nM in DPBS) of 12000 M⁻¹ s⁻¹, an association rate (streptavidin concentration 36 nM in DPBS) of 4200 M⁻¹ s⁻¹, an association rate (streptavidin concentration 54 nM in DPBS) of 3200 M⁻¹ s⁻¹ and an association rate (streptavidin concentration 90 nM in DPBS) of 6400 M⁻¹ s⁻¹. Besides, the “connection ratio / association rate” value (streptavidin-biotin complex, real-time bonding, Langmuir model) was determined as 0.0003 M⁻¹ s⁻¹. Besides, under “streptavidin-biotin complex, saturation state (FIG. 10B)”, the koff (in general, a measure of how fast the partners let go of each other) came out at 0.014 s⁻¹. The pKd reads like this: (streptavidin-biotin complex, saturation state, Hill model fit (FIG. 10B), read-out: Kd) 6.42; (streptavidin-biotin complex, read-out: separation constant) 6.42.

These data come from patent US11733161B2, “Method of determining concentration of subject based on fraction bound measurement” (Korea Advanced Institute of Science and Technology, priority 2019, dated 2023).
